Several values for one entry are separate records, joined by “and”; a condition that tells them apart may be missing. Equal entries are not always repeated.

In this data set the test system is Sap9. The data set can be described thus: 6 ng/μL Sap9 in 2 mM sodium phosphate buffer. The note with it: 37 °C, up to 3 h.

Regarding DSHAKRHHGYKRKFHEKHHSHRGY, the fragment found was 6–24, major and 7–24, major and 13–24, major and 14–24, major.

These data come from publication PMC7391080 (2020).
